Assay results published in paper PMC10187092 (Emerging Microbes & Infections, 2023).

Tests used:
SARS-CoV-2 3CLpro = SARS-CoV-2 3CLpro (Severe acute respiratory syndrome coronavirus 2, UniProt P0DTD1); type: cell-based
[1] = target: SARS-CoV-2 3CLpro (wild-type) (Severe acute respiratory syndrome coronavirus 2, UniProt P0DTD1); type: cell-based

Compound	rescue of reporter expression in 3CLpro transfected cells (SARS-CoV-2 3CLpro)	potency in dose-response validation [1]	inhibition of 3CLpro [1]
CCO[C@@H]1OC(=O)C[C@@H]1NC(=O)[C@@H]1CCCN1C(=O)[C@@H](NC(=O)c1ccc(N)c(Cl)c1)C(C)(C)C [Belnacasan]	failed to rescue reporter expression	–	–
CC(C)(C)NC(=O)N[C@H](C(=O)N1C[C@H]2[C@@H]([C@H]1C(=O)NC(CC1CCC1)C(=O)C(N)=O)C2(C)C)C(C)(C)C (stereo partly drawn) [Boceprevir]	–	weak to moderate potency	–
O=c1c2ccccc2[se]n1-c1ccccc1 [Ebselen]	–	–	no inhibition
Cc1ccc(NC(=O)c2ccc(CN3CCN(C)CC3)cc2)cc1Nc1nc(-c2cccnc2)cs1 [Masitinib]	–	–	negative
Ac-DEVD-CHO	failed to rescue reporter expression	–	–
Z-FA-FMK	–	weak to moderate potency	–
